Laboratory results from patent publication US20100273876A1, “ANTIBACTERIAL FORMULATION COMPRISING A DIALKYL SULPHOSUCCINATE AND A CARBANILIDE ANTIBACTERIAL AGENT” (priority 2007, published 2010).

Experiments:
[1] = test system: C. striatum NCTC 764; assay: MBC assay; type: cell-based, Corynebacterium striatum
Method: Several Corynebacterium test species were also used in this study, namely C. mucifaciens ATCC 700355, C. striatum NCTC 764, C. xerosis NCTC 11861 and C. jeikeium NCTC 11915. These Gram-positive pathogens are closely related to organisms (aerobic diphtheroids of the genus Corynebacterium) that cause body odour. C. mucifaciens and C. striatum were cultured and maintained on Mueller-Hinton Medium (agar and broth) and were incubated aerobically at 37° C. for 24 hours. C. xerosis and C. jeikeium were cultured and maintained on Mueller-Hinton Medium containing 5% (v/v) lysed horse blood (agar and broth) and were incubated aerobically at 37° C. for 72 hours. This assay, normally carried out after an MIC assay, determines the rnininiurn concentration of a compound that is lethal to the micro-organism being tested. […] These samples were then individually sub-cultured on antibiotic-free agar medium, under the incubation conditions described above. Following incubation they were examined visually for microbial growth.

[2] = test system: P. acnes PRP-007; assay: Agar dilution MIC assay; type: cell-based, Propionibacterium acnes; conditions: P. acnes PRP-007 (Clin)
Method: (§1) The propionibacteria were cultured and maintained on Wilkins-Chalgren Anaerobe Medium (agar and broth) at pH 6.0; all cultures were incubated anaerobically at 37° C. for 72 hours.
(§2) This is a standard international method for quantitatively assessing the antimicrobial activity of a compound in a solid medium. The test compound was prepared to 40× the highest concentration required (eg, 10 mg/ml for a final concentration of 250 μg/ml) and a series of doubling dilutions were performed in a suitable solvent. A set amount of these antimicrobial stock solutions was then added to molten agar medium (ca. 55° C.), mixed thoroughly, poured into sterile Petri dishes and allowed to cool/set.
(§3) A Multipoint™ Inoculator (AQS Manufacturing Ltd, UK) was used to inoculate the plates by spotting the inocula onto the surface of the agar, delivering approximately 1 to 2 μl per spot (yielding 10^5 CFU(colony forming units) per spot).
(§4) The plate(s) were then incubated under the conditions described above, following which they were examined visually for signs of bacterial growth. The MIC value was ascertained when there was a marked reduction in, or total loss of, growth on the test plate at the lowest concentration as compared to that of the growth on the control plate.
(§5) The assays were conducted in duplicate and included a positive control (culture medium, diluting solvent and inoculum).

[3] = test system: P. acnes PRP-010; assay: Agar dilution MIC assay; type: cell-based, Propionibacterium acnes; conditions: P. acnes PRP-010 (MLSK)
Method: as §1, §2, §3, §4, §5

[4] = test system: P. acnes PRP-039; assay: Agar dilution MIC assay; type: cell-based, Propionibacterium acnes; conditions: P. acnes PRP-039 (Tet/MLS)
Method: as §1, §2, §3, §4, §5

[5] = test system: P. acnes PRP-102; assay: Agar dilution MIC assay; type: cell-based, Propionibacterium acnes; conditions: P. acnes PRP-102 (Tet/MLS)
Method: as §1, §2, §3, §4, §5

[6] = test system: P. acnes PRP-004; assay: Agar dilution MIC assay; type: cell-based, Propionibacterium acnes; conditions: P. acnes PRP-004 (Tet)
Method: as §1, §2, §3, §4, §5

[7] = test system: P. acnes PRP-101; assay: Agar dilution MIC assay; type: cell-based, Propionibacterium acnes; conditions: P. acnes PRP-101 (Tet/MLS)
Method: as §1, §2, §3, §4, §5

[8] = test system: P. acnes PRP-002; assay: Agar dilution MIC assay; type: cell-based, Propionibacterium acnes; conditions: P. acnes PRP-002 (Tet/MLS)
Method: as §1, §2, §3, §4, §5

[9] = test system: P. acnes PRP-026; assay: Agar dilution MIC assay; type: cell-based, Propionibacterium acnes; conditions: P. acnes PRP-026 (MLS)
Method: as §1, §2, §3, §4, §5

[10] = test system: P. acnes PRP-046; assay: Agar dilution MIC assay; type: cell-based, Propionibacterium acnes; conditions: P. acnes PRP-046 (resistance None)
Method: as §1, §2, §3, §4, §5

[11] = test system: C. striatum NCTC 764; assay: MIC assay, liquid medium; type: cell-based, Corynebacterium striatum
Method: Several Corynebacterium test species were also used in this study, namely C. mucifaciens ATCC 700355, C. striatum NCTC 764, C. xerosis NCTC 11861 and C. jeikeium NCTC 11915. These Gram-positive pathogens are closely related to organisms (aerobic diphtheroids of the genus Corynebacterium) that cause body odour. C. mucifaciens and C. striatum were cultured and maintained on Mueller-Hinton Medium (agar and broth) and were incubated aerobically at 37° C. for 24 hours. C. xerosis and C. jeikeium were cultured and maintained on Mueller-Hinton Medium containing 5% (v/v) lysed horse blood (agar and broth) and were incubated aerobically at 37° C. for 72 hours.
This is a standard international method for quantitatively assessing the antimicrobial activity of a compound in a liquid medium. The method used a sterile 96-well microtitre plate, capable of holding about 200 μl of liquid per well. […]
The wells were inoculated with a liquid suspension of freshly grown micro-organism and incubated under the conditions described above. […] The MIC value was recorded as the lowest concentration of test compound required to inhibit microbial growth, ie, the lowest concentration for which the liquid in the well remained clear. […]

[12] = test system: Por. gingivalis NCTC 11834; assay: MIC assay, liquid medium; type: cell-based, Porphyromonas gingivalis
Method: The P. gingivalis strains were cultured and maintained on Wilkins-Chalgren Anaerobe Medium (agar and broth) at pH 7.0; all cultures were incubated anaerobically at 37° C. for 5-7 days.
(§6) This is a standard international method for quantitatively assessing the antimicrobial activity of a compound in a liquid medium. The method used a sterile 96-well microtitre plate, capable of holding about 200 μl of liquid per well. The wells contained liquid culture medium and ranges of decreasing concentrations of the relevant test compound in doubling dilutions (eg, 1000, 500, 250, 125 . . . μg/ml, etc. down to 0.49 μg/ml). The culture media were as described above.
(§7) The wells were inoculated with a liquid suspension of freshly grown micro-organism and incubated under the conditions described above. After incubation, the microtitre plate was examined visually (with the aid of a light box) for cloudiness in each well, which would indicate microbial growth. The MIC value was recorded as the lowest concentration of test compound required to inhibit microbial growth, ie, the lowest concentration for which the liquid in the well remained clear.
(§8) The assays included both negative (culture medium with no micro-organisms) and positive (culture medium plus diluting solvent plus micro-organism) controls.

[13] = test system: Strep. mutans ATCC 25175; assay: MIC assay, liquid medium; type: cell-based, Streptococcus mutans
Method: The S. mutans was cultured and maintained on Wilkins-Chalgren Anaerobe Medium (agar and broth) at pH 7.0 supplemented with 1 g/L glucose; all cultures were incubated at 37° C. for 48 h in an atmosphere containing 5% CO2.
as §6, §7, §8

[14] = test system: Strep. mutans ATCC 25175; assay: MBC assay; type: cell-based, Streptococcus mutans
Method: The S. mutans was cultured and maintained on Wilkins-Chalgren Anaerobe Medium (agar and broth) at pH 7.0 supplemented with 1 g/L glucose; all cultures were incubated at 37° C. for 48 h in an atmosphere containing 5% CO2. This assay, normally carried out after an MIC assay, determines the rnininiurn concentration of a compound that is lethal to the micro-organism being tested. […] These samples were then individually sub-cultured on antibiotic-free agar medium, under the incubation conditions described above. Following incubation they were examined visually for microbial growth.

Substance: dioctyl sodium sulphosuccinate [DOSS]
- MBC [1]: 62.5 mg/L
- MIC/MBC ratio [1]: 1
- MIC [2]: 15.6 mg/L
- MIC [3]: 15.6 mg/L
- MIC [4]: 15.6 mg/L
- MIC [5]: 31.25 mg/L
- MIC [6]: 15.6 mg/L
- MIC [7]: 15.6 mg/L
- MIC [8]: 15.6 mg/L
- MIC [9]: 15.6 mg/L
- MIC [10]: 15.6 mg/L
- MIC [11]: 62.5 mg/L
- MIC [12]: <0.49 mg/L
- MIC [13]: 15.6 mg/L
- MBC [14]: 15.6 mg/L
- MIC/MBC ratio [14]: 1
